The results in this text go back to US12629374B2, “Antimalarial agents” (Merck Sharp & Dohme LLC, priority 2020, dated 2026).

The subject of the first experiment is ring stage parasites. In words: Parasite growth potency assay, 72 hours, LDH readout. The conditions noted are these: 72 h, parasite growth measured by LDH assay after 72 hours at 37° C.; 0.7% rings, 2% haematocrit; read-out: EC50. It is filed as cell-based. A digest of the protocol:
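Parasite growth was quantified by LDH assay after a −80 °C freeze-thaw. Before that, compound was incubated for 72 h at 37 °C under humidified gas with ring-stage cultures adjusted to 0.7% parasitemia and 2% haematocrit in serum- and albumax-supplemented RPMI-Hepes.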
On to `CCC1(COC)CC(=O)N(Cc2cccc(C(=O)N[C@H]3CCOc4ccccc43)c2)C(=N)N1` (stereo partly drawn) [Example 86, [1-[[3-[[(4S)-chroman-4-yl]carbamoyl]phenyl]methyl]-4-ethyl-4-(methoxymethyl)-6-oxo-hexahydropyrimidin-2-ylidene]ammonium; 2,2,2-trifluoroacetate], for which the half-maximal effective concentration (EC50) (commonly the concentration at which the effect is half-maximal) amounted to 49.6 nM.

Turning to `C#CCCC(c1cccc(C(=O)N[C@@H]2c3ccccc3C[C@H]2O)c1)N1C(=N)NC(CC)(CC)CC1=O` (stereo in doubt) [Example 221, 3-[(1S)-1-(4,4-diethyl-2-imino-6-oxo-hexahydropyrimidin-1-yl)pent-4-ynyl]-N-[(1R,2R)-2-hydroxyindan-1-yl]benzamide], the concentration for a half-maximal effect (EC50) worked out at 35.4 nM.

Turning to `CC(C)[C@]1(C)CC(=O)N(Cc2cccc(C(=O)N[C@H]3CCOc4ccccc43)c2)C(=N)N1` [Example 3, [(4S)-1-[[3-[[(4S)-chroman-4-yl]carbamoyl]phenyl]methyl]-4-isopropyl-4-methyl-6-oxo-hexahydropyrimidin-2-ylidene]ammonium; 2,2,2-trifluoroacetate], the EC50 turned out to be 6.2 nM.

On to `CCC1(CC)CC(=O)N(Cc2cccc(C(=O)N[C@H]3CC(C)(C)Oc4cc(F)ccc43)c2)C(=N)N1` (stereo in doubt) [Example 93, [4,4-diethyl-1-[[3-[(7-fluoro-2,2-dimethyl-chroman-4-yl)carbamoyl]phenyl]methyl]-6-oxo-hexahydropyrimidin-2-ylidene]ammonium; 2,2,2-trifluoroacetate], for which the EC50 came out at 1.8 nM.

Turning to `CCC1(CC)CC(=O)N(Cc2cc(C(=O)N[C@@H]3c4ccccc4C[C@H]3O)ccn2)C(=N)N1` [Example 38, [4,4-diethyl-1-[[4-[[(1R,2R)-2-hydroxyindan-1-yl]carbamoyl]-2-pyridyl]methyl]-6-oxo-hexahydropyrimidin-2-ylidene]ammonium; 2,2,2-trifluoroacetate], the EC50 amounted to 31.3 nM.

As for `CCC1(CC)CC(=O)N([C@@H](c2cccc(C(=O)N[C@H]3CCOc4ccccc43)c2)C23CC(C2)C3)C(=N)N1` [Example 32, [1-[1-bicyclo[1.1.1]pentanyl-[3-[[(4S)-chroman-4-yl]carbamoyl]phenyl]methyl]-4,4-diethyl-6-oxo-hexahydropyrimidin-2-ylidene]ammonium; 2,2,2-trifluoroacetate], the EC50 was 2 nM.

As to `CCC1(CC)CC(=O)N([C@H](CCS(C)(=O)=O)c2cccc(C(=O)N[C@H]3C[C@H](C(F)(F)F)Oc4ccccc43)c2)C(=N)N1` [Example 162, [4,4-diethyl-1-[3-methylsulfonyl-1-[3-[[(2R,4S)-2-(trifluoromethyl)chroman-4-yl]carbamoyl]phenyl]propyl]-6-oxo-hexahydropyrimidin-2-ylidene]ammonium; 2,2,2-trifluoroacetate], the EC50 amounted to 5.2 nM.

For the compound `CC1(C)CC(=O)N(Cc2cccc(C(=O)N[C@@H]3c4ccccc4OC(C)(C)[C@H]3O)c2)C(=N)N1` [Example 194, [1-[[3-[[(3S,4R)-3-hydroxy-2,2-dimethyl-chroman-4-yl]carbamoyl]phenyl]methyl]-4,4-dimethyl-6-oxo-hexahydropyrimidin-2-ylidene]ammonium; 2,2,2-trifluoroacetate], the EC50 was found to be 11.6 nM.

Turning to `CCC1(CC)CC(=O)N([C@H](c2cncnc2)c2cccc(C(=O)N[C@H]3CC(C)(C)Oc4ccccc43)c2)C(=N)N1` (stereo in doubt) [Example 92B, 3-[(4,4-diethyl-2-imino-6-oxo-hexahydropyrimidin-1-yl)-pyrimidin-5-yl-methyl]-N-(2,2-dimethylchroman-4-yl)benzamide], the EC50 was determined as 0.9 nM.

`CCC1(CC)CC(=O)N(C(COC)c2cccc(C(=O)N[C@@H]3c4ccccc4OC(C)(C)[C@H]3O)c2)C(=N)N1` (stereo partly drawn) [Example 232, 3-[l-(4,4-diethyl-2-imino-6-oxo-hexahydropyrimidin-1-yl)-2-methoxy-ethyl]-N-[(3S,4R)-3-hydroxy-2,2-dimethyl-chroman-4-yl]benzamide]: the EC50 worked out at 0.32 nM.

Regarding `CCC1(CC)CC(=O)N(Cc2ccnc(C(=O)N[C@H]3CCOc4ccccc43)c2)C(=N)N1` [Example 22, [1-[[2-[[(4S)-chroman-4-yl]carbamoyl]-4-pyridyl]methyl]-4,4-diethyl-6-oxo-hexahydropyrimidin-2-ylidene]ammonium; 2,2,2-trifluoroacetate], the EC50 turned out to be 17.2 nM.

With `CCC1(CC)CC(=O)N([C@H](c2cncc(F)c2)c2cccc(C(=O)N[C@H]3CCOc4ccccc43)c2)C(=N)N1` [Example 106A, [1-[[3-[[(4S)-chroman-4-yl]carbamoyl]phenyl]-(5-fluoropyridin-1-ium-3-yl)methyl]-4,4-diethyl-6-oxo-hexahydropyrimidin-2-ylidene]ammonium; 2,2,2-trifluoroacetate], the half-maximal effective concentration (EC50) stood at 0.5 nM.

In the case of `C#CCC[C@H](c1cccc(C(=O)N[C@H]2CCOc3ccccc32)c1)N1C(=N)NC(CC)(CC)CC1=O` [Example 209, [1-[1-[3-LL(4R)-chroman-4-yl]carbamoyl]phenyl]pent-4-ynyl]-4,4-diethyl-6-oxo-hexahydropyrimidin-2-ylidene]ammonium; 2,2,2-trifluoroacetate], the EC50 was determined as 8.9 nM.

The experiment is the same for the next values; noted with them: parasite growth measured by LDH assay after 72 hours at 37° C.; 0.7% rings, 2% haematocrit; read-out: EC50.
As for `CCC1(CC)NC(=N)N([C@H](CCOC)c2cccc(C(=O)N[C@@H]3c4ccccc4C[C@H]3O)c2)C(=O)C1C` (stereo partly drawn) [Example 227B, 3-[(1R)-1-(4,4-diethyl-2-imino-5-methyl-6-oxo-hexahydropyrimidin-1-yl)-3-methoxy-propyl]-N-[(1R,2R)-2-hydroxyindan-1-yl]benzamide], the EC50 came out at 1.16 nM.

For `CC[C@]1(C)CC(=O)N([C@H](CCOC)c2cccc(C(=O)NC3c4ccccc4OC(C)(C)C3(C)O)c2)C(=N)N1` (single isomer, unassigned) [Example 234B], the EC50 came to 74.8 nM.
